# Read-outs that look alike come from different tables or passages of the source. Where a SMILES comes first, the peptide text is derived from it. Bridges are numbered along the chain shown (N, C = ends). [ ]: non-standard residue; d: D form. Tle = CC(C)(C)[C@H](N)C(=O)O; dDab = NCC[C@@H](N)C(=O)O; Nle = CCCC[C@H](N)C(=O)O; Orn = NCCC[C@H](N)C(=O)O; Dab = NCC[C@H](N)C(=O)O; Dap = NC[C@H](N)C(=O)O; Sar = CNCC(=O)O
# Tests used:
# Assay type in all cases: cell-based
# [1] = tested on: human red blood cells (hRBC); assay: Hemolysis of human red blood cells; conditions: 100 μg/mL
# Procedure, shortened: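 Peptides at 100 μg/mL were incubated with PBS-washed fresh human erythrocytes (20% v/v, ~0.9×10^9 cells/mL final) for 1 h at 37° C. with shaking. Supernatant OD540 was read after 8-fold dilution; percent hemolysis was expressed relative to the 2.5% Triton X-100 full-lysis control, with PBS/0.001% acetic acid as 0%.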
# [2] = tested on: Pseudomonas aeruginosa ATCC 27853
# Procedure, shortened: (§1)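 Peptide MICs were determined by CLSI broth microdilution in cation-adjusted Mueller-Hinton II broth with 0.002% polysorbate 80, inoculum approx. 10^6 CFU/mL. Two-fold serial dilutions of peptide were tested. MIC was the lowest concentration (μg/mL) with no visible growth after 18-20 hours at 35° C.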
# [3] = tested on: Acinetobacter baumannii DSM 30008
# Procedure, shortened: as §1
# [4] = tested on: Escherichia coli ATCC 25922
# Procedure, shortened: as §1
# [5] = tested on: Klebsiella pneumoniae SSI #3010
# Procedure, shortened: as §1
# [6] = tested on: Acinetobacter baumannii 872842
# [7] = tested on: Klebsiella pneumoniae 968733
# Escherichia coli 926415 = tested on: Escherichia coli 926415
# [8] = clinical isolate, Mueller-Hinton II broth, P-80 0.002% present
SMILES,"Hemolysis at 100 μg/mL ([1]; 20% hRBC, 1 h at 37° C.) [%]",Pseudomonas aeruginosa ATCC 27853 MIC ([2]; Mueller-Hinton II broth) [µg/mL],Acinetobacter baumannii DSM 30008 MIC ([3]; Mueller-Hinton II broth) [µg/mL],Escherichia coli ATCC 25922 MIC ([4]; Mueller-Hinton II broth) [µg/mL],Klebsiella pneumoniae SSI #3010 MIC ([5]; Mueller-Hinton II broth) [µg/mL],"Acinetobacter baumannii 872842 MIC [6, 8] [µg/mL]","Klebsiella pneumoniae 968733 MIC [7, 8] [µg/mL]",Escherichia coli 926415 MIC (Escherichia coli 926415; [8]) [µg/mL],"Hemolysis at 100 μg/mL ([1]; red cells of human, 1 h) [%]",Pseudomonas aeruginosa ATCC 27853 MIC ([2]; ATCC 27853) [µg/mL],Acinetobacter baumannii DSM 30008 MIC ([3]; DSM 30008) [µg/mL],Escherichia coli ATCC 25922 MIC ([4]; ATCC 25922) [µg/mL],Klebsiella pneumoniae SSI #3010 MIC ([5]; SSI #3010) [µg/mL],Acinetobacter baumannii 872842 MIC [6]; 872842 [µg/mL],Klebsiella pneumoniae 968733 MIC [7]; 968733 [µg/mL],Escherichia coli 926415 MIC (Escherichia coli 926415; 926415) [µg/mL]
"CC(C)C[C@@H]1NC(=O)[C@@H](CC(C)C)NC(=O)[C@H](CCN)NC(=O)[C@@H](NC(=O)[C@H](CCN)NC(=O)CN(C)C(=O)[C@@H]2CSSC[C@H](N)C(=O)N[C@@H](Cc3c[nH]c4ccccc34)C(=O)N[C@@H](CCN)C(=O)N[C@@H](C(C)C)C(=O)N[C@H]3CSSC[C@H](NC(=O)[C@H](CC(C)C)NC(=O)[C@@H]4CCCN4C(=O)[C@H]4CCCN4C(=O)[C@H](Cc4ccc(O)cc4)NC3=O)C(=O)N[C@@H](Cc3ccc(O)cc3)C(=O)N[C@@H](CCN)C(=O)N[C@@H](CCCN)C(=O)N2)CCNC(=O)[C@H]([C@@H](C)O)NC(=O)[C@H](CCN)NC(=O)[C@H](CCN)NC1=O [Ex. 213] (H-CW[Dab]VCY[dP]PLCY[Dab][Orn]C[Sar][Dab][Dab][Dab][dL]L[Dab][Dab]T; disulfide 1-14, 5-10; lactam 17-C)",3,0.5,0.5,0.125,0.5,0.5,1,0.5,,,,,,,,
CCCC[C@@H]1NC(=O)[C@@H]2CCCN2C(=O)[C@H]2CCCN2C(=O)[C@H](CO)NC(=O)[C@H](C)NC(=O)[C@H](C(C)(C)C)NC(=O)[C@@H](NC(=O)[C@H](Cc2ccccc2)NC(C)=O)CSSC[C@@H](C(=O)N[C@@H](CCCN)C(=O)N[C@@H](CCN)C(=O)N[C@H]2CCNC(=O)[C@H]([C@@H](C)O)NC(=O)[C@H](CCN)NC(=O)[C@H](CCN)NC(=O)[C@H](CC(C)C)NC(=O)[C@@H](Cc3ccccc3)NC(=O)[C@H](CCN)NC2=O)NC(=O)[C@H](Cc2ccc(O)cc2)NC(=O)[C@H](CO)NC1=O [Ex. 51] (Ac-FC[Tle]AS[dP]P[Nle]SYC[Orn][Dab][Dab][Dab][dF]L[Dab][Dab]T; disulfide 2-11; lactam 14-C),,,,,,,,,<1,1,0.5,0.25,0.5,4,4,2
CC[C@H](C)[C@@H]1NC(=O)[C@@H]2CCCN2C(=O)[C@H]2CCCN2C(=O)[C@H](Cc2ccc(O)cc2)NC(=O)[C@@H](NC(=O)[C@@H](NC(=O)[C@H](CCN)NC(=O)[C@H](CC(C)C)NC(C)=O)C(C)C)CSSC[C@@H](C(=O)N[C@@H](Cc2ccc(O)cc2)C(=O)N[C@@H](CCN)C(=O)N[C@@H](CCCN)C(=O)N[C@H](CCN)C(=O)N[C@@H](CCN)C(=O)N[C@H]2CCNC(=O)[C@H]([C@@H](C)O)NC(=O)[C@H](CCN)NC(=O)[C@H](CCN)NC(=O)[C@H](CC(C)C)NC(=O)[C@@H](Cc3ccccc3)NC(=O)[C@H](CCN)NC2=O)NC1=O [Ex. 119] (Ac-L[Dab]VCY[dP]PICY[Dab][Orn][dDab][Dab][Dab][Dab][dF]L[Dab][Dab]T; disulfide 4-9; lactam 15-C),,,,,,,,,0.5,0.25,0.5,0.25,1,0.5,4,1
CC(=O)N[C@@H](CC(C)C)C(=O)N[C@@H](CO)C(=O)N[C@H](C(=O)N[C@H]1CSSC[C@@H](C(=O)N[C@@H](Cc2ccc(O)cc2)C(=O)N[C@@H](CC(N)=O)C(=O)N[C@@H](CCCN)C(=O)N[C@H](CCN)C(=O)N[C@@H](CCN)C(=O)N[C@@H](CCN)C(=O)N[C@H]2CCNC(=O)[C@H]([C@@H](C)O)NC(=O)[C@H](CCN)NC(=O)[C@H](CCN)NC(=O)[C@H](CC(C)C)NC(=O)[C@@H](Cc3ccccc3)NC(=O)[C@H](CCN)NC2=O)NC(=O)[C@H](CC(C)C)NC(=O)[C@H](CCCNC(=N)N)NC(=O)[C@@H](CCN)NC(=O)[C@H](C(C)C)NC1=O)C(C)(C)C [Ex. 171] (Ac-LS[Tle]CV[dDab]RLCYN[Orn][dDab][Dab][Dab][Dab][Dab][dF]L[Dab][Dab]T; disulfide 4-9; lactam 16-C),,,,,,,,,2,0.5,2,1,1,2,4,2
CCCC[C@@H]1NC(=O)[C@@H]2CCCN2C(=O)[C@@H](C)NC(=O)[C@H](CO)NC(=O)[C@H](C)NC(=O)[C@H](C(C)(C)C)NC(=O)[C@@H](NC(=O)[C@H](Cc2c[nH]c3ccccc23)NC(C)=O)CSSC[C@@H](C(=O)N[C@@H](CCN)C(=O)N[C@H](C(=O)N[C@@H](CCN)C(=O)N[C@H]2CCNC(=O)[C@H]([C@@H](C)O)NC(=O)[C@H](CCN)NC(=O)[C@H](CCN)NC(=O)[C@H](CC(C)C)NC(=O)[C@@H](Cc3ccccc3)NC(=O)[C@H](CCN)NC2=O)[C@@H](C)O)NC(=O)[C@H](Cc2ccc(O)cc2)NC(=O)[C@H](CO)NC1=O [Ex. 17] (Ac-WC[Tle]AS[dA]P[Nle]SYC[Dab]T[Dab][Dab][Dab][dF]L[Dab][Dab]T; disulfide 2-11; lactam 15-C),,,,,,,,,3,0.5,0.5,0.25,0.5,0.25,0.5,1.5
"CC(C)C[C@@H]1NC(=O)[C@@H](CC(C)C)NC(=O)[C@H](CCN)NC(=O)[C@@H](NC(=O)[C@H](CCN)NC(=O)[C@H](CCN)NC(=O)[C@@H]2CCC(=O)N[C@@H](CCN)C(=O)N[C@@H](Cc3c[nH]c4ccccc34)C(=O)N[C@H]3CSSC[C@H](NC(=O)[C@H](Cc4ccc(O)cc4)NC(=O)[C@H](CO)NC(=O)[C@H](CC(C)C)NC(=O)[C@@H]4CCCN4C(=O)[C@H]4CCCN4C(=O)[C@H](CO)NC(=O)[C@H](C)NC(=O)[C@H](C(C)C)NC3=O)C(=O)NCC(=O)N2)CCNC(=O)[C@H]([C@@H](C)O)NC(=O)[C@H](CCN)NC(=O)[C@H](CCN)NC1=O [Ex. 79] ([Dab]WCVAS[dP]PLSYCGE[Dab][Dab][Dab][Dab][dL]L[Dab][Dab]T; disulfide 3-12; lactam 17-C, N-14)",,,,,,,,,<1,0.5,0.5,0.5,1,2,8,2
CC(C)C[C@@H]1NC(=O)[C@H](CCN)NC(=O)[C@H]2CCCN2C(=O)[C@H](CO)NC(=O)[C@H](C)NC(=O)[C@H](C(C)C)NC(=O)[C@@H](NC(=O)[C@@H](N)Cc2c[nH]c3ccccc23)CSSC[C@@H](C(=O)N[C@@H](CCN)C(=O)N[C@@H](CCN)C(=O)N[C@H](C(=O)N[C@@H](CCN)C(=O)N[C@H]2CCNC(=O)[C@H]([C@@H](C)O)NC(=O)[C@H](CCN)NC(=O)[C@H](CCN)NC(=O)[C@H](CC(C)C)NC(=O)[C@@H](CC(C)C)NC(=O)[C@H](CCN)NC2=O)[C@@H](C)O)NC(=O)[C@H](Cc2ccc(O)cc2)NC(=O)[C@H](CO)NC1=O [Ex. 127] (H-WCVAS[dP][Dab]LSYC[Dab][Dab]T[Dab][Dab][Dab][dL]L[Dab][Dab]T; disulfide 2-11; lactam 16-C),,,,,,,,,1,0.5,0.25,1,0.25,0.25,8,2
CCCC[C@@H]1NC(=O)[C@@H]2CCCN2C(=O)[C@H]2CCCN2C(=O)[C@H](CO)NC(=O)[C@H](C)NC(=O)[C@H](C(C)(C)C)NC(=O)[C@@H](NC(=O)[C@H](Cc2c[nH]c3ccccc23)NC(=O)[C@@H](N)CN)CSSC[C@@H](C(=O)N[C@@H](CCN)C(=O)N[C@H](C(=O)N[C@@H](CCN)C(=O)N[C@H]2CCNC(=O)[C@H]([C@@H](C)O)NC(=O)[C@H](CCN)NC(=O)[C@H](CCN)NC(=O)[C@H](CC(C)C)NC(=O)[C@@H](Cc3ccccc3)NC(=O)[C@H](CCN)NC2=O)[C@@H](C)O)NC(=O)[C@H](Cc2ccc(O)cc2)NC(=O)[C@H](CO)NC1=O [Ex. 37] (H-[Dap]WC[Tle]AS[dP]P[Nle]SYC[Dab]T[Dab][Dab][Dab][dF]L[Dab][Dab]T; disulfide 3-12; lactam 16-C),,,,,,,,,2,0.5,0.125,0.125,0.125,0.5,2,0.5

# — patent US10829520B2, “Beta-hairpin peptidomimetics” (POLYPHOR AG, priority 2015, dated 2020)
